Measured values published in PMC4754833, “Rilpivirine analogs potently inhibit drug-resistant HIV-1 mutants” (Retrovirology, 2016).

Experiments:
HIV-1 RT mutant G190A = experiment: single round infection assay, G190A; type: cell-based; details: Human immunodeficiency virus 1
Description: (§1) The human osteosarcoma cell line, HOS, was obtained from Dr. Richard Schwartz (Michigan State University, East Lansing, MI) and grown in Dulbecco’s modified Eagle’s medium (Invitrogen, Carlsbad, CA) supplemented with 5 % (v/v) fetal bovine serum, 5 % newborn calf serum, and penicillin (50 units/ml) plus streptomycin (50 µg/ml; Quality Biological, Gaithersburg, MD). Virion production and single-round infectivity assays were used to determine antiviral activity (IC50 values) of the compounds as previously described.
(§2) pNLNgoMIVR-ΔEnv.LUC has been described previously. The RT open reading frame was removed from pNLNgoMIVR-ΔEnv.LUC (digestion with SpeI and SalI) and inserted between the SpeI and SalI sites of pBluescript II KS+. Using that construct as the wild-type template, we prepared the following HIV-1 RT mutants using the QuikChange II XL (Stratagene, La Jolla, CA) site-directed mutagenesis protocol kit: L100I, K103N, Y181C, Y188L, H221Y, K103N/Y181C, G190A, G190S, M230L, P236L, L100I/K103N, K103N/P225H, V106A/G190A/F227L, V106A, L234I, V106A/F227L, V106A/L234I, V106A/F227L/L234I, E40K, D67E, K101E, V111A, E138K, M184I, M184V, K101E/M184I, K101E/M184V, E138K/M184I, E138K/M184V, K101P, Y181I, and K101P/V179I. The following sense oligonucleotides were used with matching cognate antisense oligonucleotides (not shown) (Integrated DNA Technologies, Coralville, IA) in the mutagenesis: L100I, 5′-[…]-3′; L100I 2-103, 5′-[…]-3′; K103N, 5′-[…]-3′; Y181C, 5′-[…]-3′; Y188L, 5′-[…]-3′; H221Y, 5′-[…]-3′; G190A, 5′-[…]-3′; G190S, 5′-[…]-3′; P225H, 5′-[…]-3′; F227, 5′-[…]-3′; M230L, 5′-[…]-3′; P236L, 5′-[…]-3′; V106A, 5′-[…]-3′; L234I, 5′-[…]-3′; E40K, 5′-[…]-3′; D67E, 5′-[…]-3′; K101E, 5′-[…]-3′; V111A, 5′-[…]-3′; E138K, 5′-[…]-3′; M184I, 5′-[…]-3′; M184V, 5′-[…]-3′; K101P, 5′-[…]-3′; Y181I, 5′-[…]-3′; K101P/V179I, 5′-[…]-3′. The double mutants K103N/Y181C, K103N/P225H, and L100I/K103N were made using the previously generated K103N mutant and the appropriate oligonucleotides to add the second mutation, Y181C, P225, and L100I respectively. The double mutants V106A/F227L and V106A/L234I were prepared using the previously generated V106A mutant and the appropriate oligonucleotides to add the second mutation, F227L and L234I, respectively. The double mutants K101E/M184I and K101E/M184V were constructed using the previously generated K101E mutant and the appropriate oligonucleotides to add the second mutation, M184I and M184V, respectively. The double mutants E138K/M184I and E138K/M184V were constructed using the previously generated E138K mutant and the appropriate oligonucleotides for the second mutation, M184I and M184V, respectively. The triple mutant V106A/F227L/L234I was made using the previously generated V106A/F227L double mutant and the appropriate oligonucleotides for the third mutation, L234I. The triple mutant V106A/G190A/F227L was constructed in a series of steps using the previously generated V106A mutant and the appropriate oligonucleotides for the second mutation, G190A, to generate the double mutant V106A/G190A, and then the triple mutant was made using double mutant V106A/G190A and oligonucleotides for the third mutation, F227L. The DNA sequence of each construct was verified by DNA sequence determination. The sequences encoding the mutant RTs were then subcloned into pNLNgoMIVR-ΔEnv.LUC (between the KpnI and SalI sites) to produce the mutant HIV-1 constructs. These DNA sequences were also checked independently by DNA sequence determination.
(§3) 10.1186/s12977-016-0244-2 The IC50 values (nM) of RPV and the RPV analogs were determined against the NNRTI resistant mutants were measured by using a single round infection assay, n = 4. The concentrations (nM) are measured by reductions in luciferase reporter activity followed by the standard deviations. […]

HIV-1 RT mutant G190S = experiment: single round infection assay, G190S; type: cell-based; details: Human immunodeficiency virus 1
Description: as §1, §2, §3

HIV-1 RT mutant P236L = experiment: single round infection assay, P236L; type: cell-based; details: Human immunodeficiency virus 1
Description: as §1, §2, §3

[1] = system: HIV-1 RT mutant L100I/K103N; experiment: single round infection assay, L100I/K103N; type: cell-based; details: for IC50: Human immunodeficiency virus 1, L100I/K103N, ± SD, n=4, limit of detection 100 nM; for fold-change of IC50 of the mutant relative to WT: L100I/K103N vs WT
Description: as §1, §2, §3

HIV-1 RT mutant V106A = experiment: single round infection assay, V106A; type: cell-based; details: for fold-change of IC50 of the mutant relative to WT: V106A vs WT; for IC50: ± SD, n=4
Description: as §1, §2, §3

[2] = system: HIV-1 RT mutant V106A/F227L; experiment: single round infection assay, V106A/F227L; type: cell-based; details: V106A/F227L vs WT
Description: as §1, §2, §3

[3] = system: HIV-1 RT mutant V106A/F227L/L234I; experiment: single round infection assay, V106A/F227L/L234I; type: cell-based; details: for IC50: ± SD, n=4; for fold-change of IC50 of the mutant relative to WT: V106A/F227L/L234I vs WT
Description: as §1, §2, §3

[4] = system: HIV-1 RT mutant K101E/M184I; experiment: single round infection assay, K101E/M184I; type: cell-based; details: for fold-change of IC50 of the mutant relative to WT: K101E/M184I vs WT
Description: as §1, §2, §3

[5] = system: HIV-1 RT mutant K101E/M184V; experiment: single round infection assay, K101E/M184V; type: cell-based; details: for IC50: ± SD, n=4; for fold-change of IC50 of the mutant relative to WT: K101E/M184V vs WT
Description: as §1, §2, §3

[6] = system: HIV-1 RT mutant K101P/V179I; experiment: single round infection assay, K101P/V179I; type: cell-based; details: Human immunodeficiency virus 1
Description: as §1, §2, §3

HIV-1 RT mutant L100I = system: HIV-1 RT mutant L100I; set-up: method as in PMID 23217210; details: previous study; cited from earlier work
HIV-1 RT mutant K103N = system: HIV-1 RT mutant K103N; set-up: method as in PMID 23217210; details: previous study; cited from earlier work
HIV-1 RT mutant Y181C = system: HIV-1 RT mutant Y181C; set-up: method as in PMID 23217210; details: previous study; cited from earlier work
[7] = Human immunodeficiency virus 1, K101E/M184V

Compound `Cc1cc(/C=C/C#N)cc(C)c1Nc1nc(Nc2ccc3scnc3c2)c2nc[nH]c2n1` [compound 21] has an IC50 (HIV-1 RT mutant G190A) of 0.3 ± 0.12 nM, an IC50 (HIV-1 RT mutant G190S) of 0.2 ± 0.04 nM and an IC50 (HIV-1 RT mutant P236L) of 0.32 ± 0.09 nM. For the same compound, the IC50 [1] was 37.6 nM, the “fold-change of IC50 of the mutant relative to WT” value [1] was 92 and the “fold-change of IC50 of the mutant relative to WT” value (HIV-1 RT mutant V106A) was 3. For the same compound, the “fold-change of IC50 of the mutant relative to WT” value [2] was 27, the IC50 ([3]; Human immunodeficiency virus 1, V106A/F227L/L234I (selected by DOR)) was less than 5 nM and the IC50 ([3]; V106A/F227L/L234I (selected by DOR)) was 4.3 ± 0.8 nM. The “fold-change of IC50 of the mutant relative to WT” value [3] was 10, the “fold-change of IC50 of the mutant relative to WT” value [4] was 2 and the IC50 [5, 7] was less than 2.5 nM. For the same compound, the “fold-change of IC50 of the mutant relative to WT” value [5] was 6, the IC50 ([5]; K101E/M184V) was 2.4 ± 0.2 nM and the IC50 [6] was greater than 100 nM. The IC50 (HIV-1 RT mutant L100I) was less than 7 nM, the IC50 (HIV-1 RT mutant K103N) was less than 7 nM and the IC50 (HIV-1 RT mutant Y181C) was less than 7 nM.

Work on `Cc1cc(/C=C/C#N)cc(C)c1Nc1nc(Nc2ccc(F)cc2)c2nc[nH]c2n1` [compound 17] yielded an IC50 (HIV-1 RT mutant G190A) of 1.6 ± 0.3 nM, an IC50 (HIV-1 RT mutant G190S) of 0.74 ± 0.11 nM and an IC50 (HIV-1 RT mutant P236L) of 1.2 nM. For the same compound, the IC50 [1] was 63.4 nM, the “fold-change of IC50 of the mutant relative to WT” value [1] was 29 and the IC50 (HIV-1 RT mutant V106A; Human immunodeficiency virus 1, V106A (selected by DOR)) was less than 5 nM. For the same compound, the IC50 (HIV-1 RT mutant V106A; V106A (selected by DOR)) was 2.7 ± 0.64 nM, the “fold-change of IC50 of the mutant relative to WT” value (HIV-1 RT mutant V106A) was 2 and the “fold-change of IC50 of the mutant relative to WT” value [2] was 19. For the same compound, the “fold-change of IC50 of the mutant relative to WT” value [3] was 6, the IC50 ([4]; Human immunodeficiency virus 1, K101E/M184I, ± SD, n=4) was 15 nM and the “fold-change of IC50 of the mutant relative to WT” value [4] was 7. The IC50 [5, 7] was 8.1 nM, the “fold-change of IC50 of the mutant relative to WT” value [5] was 4 and the IC50 [6] was greater than 100 nM. For the same compound, the IC50 (HIV-1 RT mutant L100I) was less than 7 nM, the IC50 (HIV-1 RT mutant K103N) was less than 7 nM and the IC50 (HIV-1 RT mutant Y181C) was less than 7 nM.
